Experimental data reported in US20090306133A1, “New Acetyl Coenzyme A Carboxylase (ACC) Inhibitors And Uses In Treatments Of Obesity And Diabetes Mellitus - 087” (ASTRAZENECA AB, priority 2007, published 2009).

Columns and labels:
[1] = molecular target: Human recombinant Acetyl-CoA Carboxylase 2 (ACC2) (Homo sapiens, UniProt O00763); test: Assay Y: ACC2 inhibition, inorganic phosphate (Malachite Green); type: biochemical; settings: Assay Y: room temperature, 3 hr, 15 min preincubation
Method in brief: (§1)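 Enzyme preincubated with compound 15 min before substrate addition; reaction run 3 h, then phosphate detected with Malachite Green at 670 nm after 10 min at room temperature. Triplicate 10-point titrations; IC50 by non-linear four-parameter curve fitting.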

[2] = molecular target: Human recombinant Acetyl-CoA Carboxylase 1 (ACC1) (Homo sapiens, UniProt Q13085); test: Assay Y: ACC1 inhibition, inorganic phosphate (Malachite Green); type: biochemical; settings: Assay Y: room temperature, 3 hr, 15 min preincubation
Method in brief: as §1

Human recombinant Acetyl-CoA Carboxylase 2 (ACC2), sequence (O00763 whole entry): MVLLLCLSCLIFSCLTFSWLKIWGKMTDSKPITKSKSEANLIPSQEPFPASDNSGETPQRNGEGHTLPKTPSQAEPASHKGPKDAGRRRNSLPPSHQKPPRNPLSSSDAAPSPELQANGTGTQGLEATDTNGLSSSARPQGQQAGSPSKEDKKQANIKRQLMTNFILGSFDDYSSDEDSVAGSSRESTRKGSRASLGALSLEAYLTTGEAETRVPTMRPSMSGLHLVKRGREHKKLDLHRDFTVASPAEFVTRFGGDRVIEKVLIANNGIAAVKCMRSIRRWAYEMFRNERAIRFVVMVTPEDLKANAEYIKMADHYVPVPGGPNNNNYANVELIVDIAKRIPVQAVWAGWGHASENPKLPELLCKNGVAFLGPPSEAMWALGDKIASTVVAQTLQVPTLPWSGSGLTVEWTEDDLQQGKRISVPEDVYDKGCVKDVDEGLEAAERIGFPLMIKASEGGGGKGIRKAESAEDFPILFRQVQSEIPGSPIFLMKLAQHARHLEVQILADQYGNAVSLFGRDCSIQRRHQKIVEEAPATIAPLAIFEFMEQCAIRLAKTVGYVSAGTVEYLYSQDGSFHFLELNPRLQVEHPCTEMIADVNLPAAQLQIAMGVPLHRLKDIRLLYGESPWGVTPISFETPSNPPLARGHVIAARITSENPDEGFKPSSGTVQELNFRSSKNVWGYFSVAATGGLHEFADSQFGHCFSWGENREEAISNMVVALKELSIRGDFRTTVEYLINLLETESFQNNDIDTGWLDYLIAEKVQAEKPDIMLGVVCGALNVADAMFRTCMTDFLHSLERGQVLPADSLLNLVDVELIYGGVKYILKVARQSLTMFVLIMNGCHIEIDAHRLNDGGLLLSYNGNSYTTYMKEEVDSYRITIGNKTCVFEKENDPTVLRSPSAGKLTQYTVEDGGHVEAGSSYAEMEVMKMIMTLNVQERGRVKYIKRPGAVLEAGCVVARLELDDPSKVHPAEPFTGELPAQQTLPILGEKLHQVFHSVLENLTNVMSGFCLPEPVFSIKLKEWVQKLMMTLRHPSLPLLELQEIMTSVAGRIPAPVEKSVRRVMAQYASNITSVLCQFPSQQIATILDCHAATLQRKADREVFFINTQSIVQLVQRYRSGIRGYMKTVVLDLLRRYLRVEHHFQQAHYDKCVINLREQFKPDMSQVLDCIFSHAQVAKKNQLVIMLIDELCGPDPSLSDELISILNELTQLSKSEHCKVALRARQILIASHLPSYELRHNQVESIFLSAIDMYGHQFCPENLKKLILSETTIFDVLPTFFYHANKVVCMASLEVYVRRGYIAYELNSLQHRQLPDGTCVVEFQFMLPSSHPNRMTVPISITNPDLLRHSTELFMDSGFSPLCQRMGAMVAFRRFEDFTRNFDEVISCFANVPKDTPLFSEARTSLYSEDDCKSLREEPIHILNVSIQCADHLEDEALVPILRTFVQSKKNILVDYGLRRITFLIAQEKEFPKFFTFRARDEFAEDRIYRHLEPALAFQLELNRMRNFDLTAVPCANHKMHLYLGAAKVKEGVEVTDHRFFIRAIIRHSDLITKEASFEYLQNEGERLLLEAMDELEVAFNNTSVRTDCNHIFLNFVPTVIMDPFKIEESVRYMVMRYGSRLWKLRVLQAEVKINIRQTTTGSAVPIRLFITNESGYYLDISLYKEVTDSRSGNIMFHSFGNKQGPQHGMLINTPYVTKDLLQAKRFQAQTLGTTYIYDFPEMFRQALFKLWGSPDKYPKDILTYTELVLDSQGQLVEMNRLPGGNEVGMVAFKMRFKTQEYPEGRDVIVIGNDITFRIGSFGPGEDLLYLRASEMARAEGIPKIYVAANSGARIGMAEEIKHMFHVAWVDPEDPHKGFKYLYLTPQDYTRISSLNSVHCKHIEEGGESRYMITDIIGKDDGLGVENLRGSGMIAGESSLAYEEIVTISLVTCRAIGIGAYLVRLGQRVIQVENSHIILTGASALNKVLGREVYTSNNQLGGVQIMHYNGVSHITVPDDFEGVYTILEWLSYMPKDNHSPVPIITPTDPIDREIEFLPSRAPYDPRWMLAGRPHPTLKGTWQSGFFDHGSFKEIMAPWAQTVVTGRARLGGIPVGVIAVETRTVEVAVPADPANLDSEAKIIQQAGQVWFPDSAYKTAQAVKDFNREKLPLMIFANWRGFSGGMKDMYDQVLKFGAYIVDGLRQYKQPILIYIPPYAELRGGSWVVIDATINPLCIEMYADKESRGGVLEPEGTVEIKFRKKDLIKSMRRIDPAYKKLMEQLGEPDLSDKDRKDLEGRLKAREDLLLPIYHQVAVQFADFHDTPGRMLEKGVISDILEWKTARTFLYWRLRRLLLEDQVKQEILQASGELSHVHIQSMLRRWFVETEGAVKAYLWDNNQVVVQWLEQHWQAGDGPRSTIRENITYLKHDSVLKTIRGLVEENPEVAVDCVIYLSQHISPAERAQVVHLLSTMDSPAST

Structure (SMILES) | IC50 [1] [µM] | IC50 [2] [µM]
CC(C)(C)OC(=O)NC[C@H]1CC[C@H](CNC(=O)c2cc(-c3cccc(C(=O)O)c3)nc3ccccc23)CC1 [Example 108, 3-(4-{[(trans-4-{[(tert-Butoxycarbonyl)amino]methyl}cyclohexyl)methyl]-carbamoyl}quinolin-2-yl)benzoic Acid] | 0.45 | 7.87
COc1ccc(-c2cc(C(=O)NC[C@H]3CC[C@H](CNC(=O)OC(C)(C)C)CC3)ccn2)c(OC)c1 [Example 47, tert-Butyl {[trans-4-({[2-(2,4-dimethoxyphenyl)isonicotinoyl]amino}methyl)cyclohexyl]methyl}carbamate] | 9.85 | 14.1
CC(C)(C)OC(=O)NC[C@H]1CC[C@H](CNS(=O)(=O)c2ccc(Cl)c(Cl)c2)CC1 [Example 65, tert-Butyl {[trans-4-({[(3,4-dichlorophenyl)sulfonyl]amino}methyl)cyclohexyl]methyl}-carbamate] | 3.88 | > 20
CCOC(=O)NC[C@H]1CC[C@H](CNC(=O)c2cc(-c3ccc(OCC)cc3)nc3ccccc23)CC1 [Example 30, Ethyl ({trans-4-[({[2-(4-ethoxyphenyl)quinolin-4-yl]carbonyl}amino)methyl]-cyclohexyl}methyl)carbamate] | 1.29 | > 20
CC(C)(C)OC(=O)NC[C@H]1CC[C@H](CNC(=O)c2cc(-c3ccccc3)nc3ccccc23)CC1 [Example 6, tert-butyl {[trans-4-({[(2-phenylquinolin-4-yl)carbonyl]amino}methyl)cyclohexyl]methyl}carbamate] | 0.24 | 0.56
CC(C)(C)OC(=O)NC[C@H]1CC[C@H](CNC(=O)c2cc(N3CCC(CO)CC3)nc3ccccc23)CC1 [Example 188, tert-Butyl[(trans-4-{[({2-[4-(hydroxymethyl)-piperidin-1-yl]quinolin-4-yl}carbonyl)amino]-methyl}cyclohexyl)-methyl]carbamate] | 0.27 | 5.64
CN(C)CCOc1ccc(-c2cc(C(=O)NC[C@H]3CC[C@H](CNC(=O)OC(C)(C)C)CC3)c3ccccc3n2)cn1 [Example 184, tert-Butyl{[trans-4-({[(2-{6-[2-(dimethylamino)ethoxy]pyridin-3-yl}quinolin-4-yl)carbonyl]amino}-methyl)cyclohexyl]-methyl}carbamate] | 0.04 | 0.21
CCOC(=O)NC[C@H]1CC[C@H](CNC(=O)c2cc(-c3ccc(Cl)cc3)nc3ccccc23)CC1 [Example 32, Ethyl ({trans-4-[({[2-(4-chlorophenyl)quinolin-4-yl]carbonyl}amino)methyl]cyclo-hexyl}methyl)carbamate] | 1.73 | > 20
CC(C)(C)OC(=O)NC[C@H]1CC[C@H](CNC(=O)c2ccnc(-c3cccc(Cl)c3)c2)CC1 [Example 51, tert-Butyl {[trans-4-({[2-(3-chlorophenyl)isonicotinoyl]amino}methyl)cyclohexyl]-methyl}carbamate] | 5.67 | > 20
Cc1[nH]c(=O)ccc1-c1cc(C(=O)NC[C@H]2CC[C@H](CNC(=O)OC(C)(C)C)CC2)c2ccccc2n1 [Example 2, tert-Butyl ({trans-4-[({[2-(2-methyl-6-oxo-1,6-dihydropyridin-3-yl)quinolin-4-yl]carbonyl}amino)methyl]cyclohexyl}methyl)carbamate] | 2.96 | > 20
COc1ccccc1-c1cc(C(=O)NC[C@H]2CC[C@H](CNC(=O)OC(C)(C)C)CC2)c2ccccc2n1 [Example 23, tert-Butyl ({trans-4-[({[2-(2-methoxyphenyl)quinolin-4-yl]carbonyl}amino)methyl]-cyclohexyl}methyl)carbamate] | 0.46 | 3.27
Cc1ccc(-c2cc(C(=O)NC[C@H]3CC[C@H](CNC(=O)OC(C)(C)C)CC3)c3ccccc3n2)cc1 [Example 20, tert-Butyl ({trans-4-[({[2-(4-methylphenyl)quinolin-4-yl]carbonyl}amino)methyl]-cyclohexyl}methyl)carbamate] | 0.62 | 1.29
CN(C)CCCOc1cc(C(=O)NC[C@H]2CC[C@H](CNC(=O)OC(C)(C)C)CC2)c2ccccc2n1 [Example 181, tert-Butyl[(trans-4-{[({2-[3-(dimethylamino)-propoxy]quinolin-4-yl}carbonyl)amino]-methyl}cyclohexyl)-methyl]carbamate] | 1.34 | 12.3
CCCN(C[C@H]1CC[C@H](CNC(=O)OC(C)(C)C)CC1)S(=O)(=O)c1ccc2ccccc2c1 [Example 87, tert-Butyl [(trans-4-{[(2-naphthylsulfonyl)(propyl)amino]methyl}cyclohexyl)methyl]-carbamate] | 8.71 | > 20
CC(C)(C)OC(=O)NC[C@H]1CC[C@H](CNS(=O)(=O)c2cc(-c3ccccc3)nc3ccccc23)CC1 [Example 95, tert-Butyl {[trans-4-({[(2-phenylquinolin-4-yl)sulfonyl]amino}methyl)cyclohexyl]-methyl}carbamate] | 0.98 | 2.14
CCOC(=O)NC[C@H]1CC[C@H](CNC(=O)c2cc(-c3ccc(C(N)=O)cc3)nc3ccccc23)CC1 [Example 61, Ethyl ({trans-4-[({[2-(4-carbamoylphenyl)quinolin-4-yl]carbonyl}amino)methyl]-cyclohexyl}methyl)carbamate] | 0.55 | 1
CCCOC(=O)NC[C@H]1CC[C@H](CNC(=O)c2cc(-c3ccncc3)nc3ccccc23)CC1 [Example 58, Propyl {[trans-4-({[(2-pyridin-4-ylquinolin-4-yl)carbonyl]amino}methyl)cyclohexyl]-methyl}carbamate] | 0.81 | 2.1
CC(=O)N1CCN(CCCOc2cc(C(=O)NC[C@H]3CC[C@H](CNC(=O)OC(C)(C)C)CC3)c3ccccc3n2)CC1 [Example 183, tert-Butyl[(trans-4-{[({2-[3-(4-acetylpiperazin-1-yl)propoxy]quinolin-4-yl}carbonyl)amino]-methyl}cyclohexyl)-methyl]carbamate] | 1.26 | > 20

Continued by falling IC50 [1], values first:

IC50 [1] [µM] | IC50 [2] [µM] | Structure (SMILES)
9.87 | 7.6 | COc1ccc(-c2cc(C(=O)NC[C@H]3CC[C@H](CNC(=O)OC(C)(C)C)CC3)ccn2)cn1 [Example 49, tert-Butyl {[trans-4-({[(6′-methoxy-2,3′-bipyridin-4-yl)carbonyl]amino}methyl)cyclohexyl]methyl}carbamate]
9.67 | > 20 | COc1ccc(-c2cc(C(=O)NC[C@H]3CC[C@H](CNC(=O)OC(C)(C)C)CC3)ccn2)c(OC)n1 [Example 48, tert-Butyl {[trans-4-({[(2′,6′-dimethoxy-2,3′-bipyridin-4-yl)carbonyl]amino}methyl)-cyclohexyl]methyl}carbamate]
6.82 | 5.3 | CC(C)(C)OC(=O)NC[C@H]1CC[C@H](CNC(=O)c2ccnc(-c3ccc(C(N)=O)cc3)c2)CC1 [Example 50, tert-Butyl {[trans-4-({[2-(4-carbamoylphenyl)isonicotinoyl]amino}methyl)cyclohexyl]-methyl}carbamate]
6.14 | 12.8 | COc1ccc(-c2cc(C(=O)NC[C@H]3CC[C@H](CNC(=O)OC(C)(C)C)CC3)ccn2)cc1 [Example 42, tert-Butyl {[trans-4-({[2-(4-methoxyphenyl)isonicotinoyl]amino}methyl)cyclo-hexyl]methyl}carbamate]
4.59 | > 20 | C=CCN(C[C@H]1CC[C@H](CNC(=O)OC(C)(C)C)CC1)S(=O)(=O)c1ccc2ccccc2c1 [Example 84, tert-Butyl [(trans-4-{[allyl(2-naphthylsulfonyl)amino]methyl}cyclohexyl)methyl]-carbamate]
4.05 | 5.44 | Cc1cc(C(=O)NC[C@H]2CC[C@H](CNC(=O)OC(C)(C)C)CC2)cc(-c2ccc(CN)cc2)n1 [Example 38, tert-Butyl ({trans-4-[({2-[4-(aminomethyl)phenyl]-6-methylisonicotinoyl}amino)-methyl]cyclohexyl}methyl)carbamate]
3.03 | > 20 | Cc1nc(-c2ccc(S(=O)(=O)N(C)C[C@H]3CC[C@H](CNC(=O)OC(C)(C)C)CC3)s2)cs1 [Example 89, tert-Butyl ({trans-4-[(methyl {[5-(2-methyl-1,3-thiazol-4-yl)-2-thienyl]sulfonyl}-amino)methyl]cyclohexyl}methyl)carbamate]
2.83 | 4.58 | CC(C)(C)OC(=O)NC[C@H]1CC[C@H](CNS(=O)(=O)c2cccc(-c3ccccc3)c2)CC1 [Example 63, tert-Butyl [(trans-4-{[(biphenyl-3-ylsulfonyl)amino]methyl}cyclohexyl)methyl]-carbamate]
1.32 | 4.25 | COCCOC(=O)NC[C@H]1CC[C@H](CNC(=O)c2cc(-c3ccc(N4CCN(C)CC4)nc3)nc3ccccc23)CC1 [Example 120, 2-Methoxyethyl[(trans-4-{[({2-[6-(4-methylpiperazin-1-yl)pyridin-3-yl]quinolin-4-yl}carbonyl)amino]methyl}cyclohexyl)methyl]carbamate]
0.96 | 3.31 | CN(C)S(=O)(=O)c1ccc(-c2cc(C(=O)NC[C@H]3CC[C@H](CNC(=O)OC4CCOCC4)CC3)c3ccccc3n2)cc1 [Example 140, Tetrahydro-2H-pyran-4-yl{[trans-4-({[(2-{4-[(dimethylamino)sulfonyl]phenyl}quinolin-4-yl)carbonyl]amino}-methyl)cyclohexyl]-methyl}carbamate]
0.71 | 3.18 | CN1CCN(c2ccc(-c3cc(C(=O)NC[C@H]4CC[C@H](CNC(=O)OCC5CCO5)CC4)c4ccccc4n3)cn2)CC1 (relative stereo) [Example 111, Oxetan-2-ylmethyl-[(trans-4-{[({2-[6-(4-methylpiperazin-1-yl)pyridin-3-yl]quinolin-4-yl}carbonyl)amino]methyl}cyclohexyl)methyl]carbamate]
